# Data published in paper PMC4448990 (Pharmacology Research & Perspectives, 2015).
# How the values were obtained:
# [1] = biological target: Kinase, protein, GSK3b (h) (Homo sapiens, UniProt P49841); test: in vitro selectivity profile; format: biochemical
# [2] = biological target: Dopamine, D2s (h) (Homo sapiens, UniProt P14416); test: in vitro selectivity profile; format: binding
# [3] = biological target: Muscarinic, M1 (h) (Homo sapiens, UniProt P11229); test: in vitro selectivity profile; format: binding
# [4] = biological target: Neuropeptide, NPY2 (h) (Homo sapiens, UniProt P49146); test: in vitro selectivity profile; format: binding
# [5] = biological target: human GRIN1/GRIN2B NMDA receptor (Homo sapiens, UniProt Q05586+Q13224); test: submaximal NMDA-receptor-mediated currents in HEK cells; format: cell-based
# [6] = biological target: Serotonin, 5HT2A (h) (Homo sapiens, UniProt P28223); test: in vitro selectivity profile; format: binding
# [7] = system: Neurokinin, NK3 (NKB); test: in vitro selectivity profile; format: binding; settings: eslicarbazepine 400 μmol/L
# [8] = biological target: Norepinephrine transporter (h) (Homo sapiens, UniProt P23975); test: in vitro selectivity profile; format: binding
# [9] = system: P-glycoprotein; settings: ref Fortuna et al. [2012]; cited from earlier work
# [10] = system: GABA A, agonist site; test: in vitro selectivity profile; format: binding; settings: eslicarbazepine 400 μmol/L
# [11] = system: GABA A, BDZ, alpha 5 site; test: in vitro selectivity profile; format: binding; settings: eslicarbazepine 400 μmol/L
# [12] = system: Somatostatin, nonselective; test: in vitro selectivity profile; format: binding; settings: eslicarbazepine 400 μmol/L
# [13] = system: Melatonin, nonselective; test: in vitro selectivity profile; format: binding; settings: eslicarbazepine 400 μmol/L
# [14] = system: Histamine, H1; test: in vitro selectivity profile; format: binding; settings: eslicarbazepine 400 μmol/L
# [15] = biological target: Kinase, protein, MAPK3 (ERK1, P44MAPK) (h) (Homo sapiens, UniProt P27361); test: in vitro selectivity profile; format: biochemical
# [16] = system: Glutamate, kainate site; test: in vitro selectivity profile; format: binding; settings: eslicarbazepine 400 μmol/L
# [17] = system: Serotonin, 5HT1B; test: in vitro selectivity profile; format: binding; settings: eslicarbazepine 400 μmol/L
# [18] = system: GABA, chloride, TBOB site; test: in vitro selectivity profile; format: binding; settings: eslicarbazepine 400 μmol/L
# [19] = biological target: Serotonin transporter (h) (Homo sapiens, UniProt P31645); test: in vitro selectivity profile; format: binding
# [20] = system: GABA A, BDZ, alpha 6 site; test: in vitro selectivity profile; format: binding; settings: eslicarbazepine 400 μmol/L
# [21] = biological target: human Nav1.3 sodium channels (Homo sapiens, UniProt Q9NY46); test: whole-cell patch clamp, Nav1.3 in CHO-K1 cells; format: cell-based; settings: 250 μmol/L
# [22] = biological target: Kinase, protein, SGK1 (h) (Homo sapiens, UniProt O00141); test: in vitro selectivity profile; format: biochemical
# [23] = system: persistent Na+ current (INaP); settings: 300 μmol/L, ref Döser et al. [2013a], [2014], cited from earlier work
# [24] = system: Potassium channel, ATP-sensitive; test: in vitro selectivity profile; format: binding; settings: eslicarbazepine 400 μmol/L
# [25] = biological target: Dopamine, D4.4 (h) (Homo sapiens, UniProt P21917); test: in vitro selectivity profile; format: binding
# [26] = system: Decarboxylase, glutamic acid; test: in vitro selectivity profile; format: biochemical; settings: eslicarbazepine 400 μmol/L
# [27] = biological target: Neurotensin (h) (Homo sapiens, UniProt P30989); test: in vitro selectivity profile; format: binding
# [28] = system: Inositol triphosphate, IP3; test: in vitro selectivity profile; format: binding; settings: eslicarbazepine 400 μmol/L
# [29] = system: Nitric oxide, NOS (neuronal-binding); test: in vitro selectivity profile; settings: eslicarbazepine 400 μmol/L
# [30] = system: Glutamate, NMDA agonist site; test: in vitro selectivity profile; format: binding; settings: eslicarbazepine 400 μmol/L
# [31] = plasma and brain concentrations of eslicarbazepine after ESL; format: in vivo; settings: mouse; for concentration at 60 min: 100 mg/kg; for concentration at 15 min: Amygdala kindling
# [32] = system: Glutamate, chloride-dependent site; test: in vitro selectivity profile; format: binding; settings: eslicarbazepine 400 μmol/L
# [33] = biological target: Cannabinoid, CB1 (h) (Homo sapiens, UniProt P21554); test: in vitro selectivity profile; format: binding
# [34] = biological target: Serotonin, 5HT5A (h) (Homo sapiens, UniProt P47898); test: in vitro selectivity profile; format: binding
# [35] = biological target: Serotonin, 5HT6 (h) (Homo sapiens, UniProt P50406); test: in vitro selectivity profile; format: binding
# [36] = biological target: Kinase, protein, MAPK1 (ERK2, p42mapk) (h) (Homo sapiens, UniProt P28482); test: in vitro selectivity profile; format: biochemical
# [37] = biological target: Kinase, protein, PKA (h) (Homo sapiens, UniProt P17612); test: in vitro selectivity profile; format: biochemical
# [38] = human plasma and CSF pharmacokinetics; format: in vivo; settings: ESL 1200 mg once daily, protein binding 30%
# [39] = system: Imidazoline, I2 [central]; test: in vitro selectivity profile; format: binding; settings: eslicarbazepine 400 μmol/L
# [40] = system: Oxygenase, COX-2; test: in vitro selectivity profile; format: biochemical; settings: eslicarbazepine 400 μmol/L
# [41] = biological target: Adenosine transporter (h) (Homo sapiens, UniProt Q99808); test: in vitro selectivity profile; format: binding
# [42] = biological target: Protease, caspase, CASP-8 (h) (Homo sapiens, UniProt Q14790); test: in vitro selectivity profile; format: biochemical
# Chain of human Nav1.3 sodium channels (Q9NY46 whole entry): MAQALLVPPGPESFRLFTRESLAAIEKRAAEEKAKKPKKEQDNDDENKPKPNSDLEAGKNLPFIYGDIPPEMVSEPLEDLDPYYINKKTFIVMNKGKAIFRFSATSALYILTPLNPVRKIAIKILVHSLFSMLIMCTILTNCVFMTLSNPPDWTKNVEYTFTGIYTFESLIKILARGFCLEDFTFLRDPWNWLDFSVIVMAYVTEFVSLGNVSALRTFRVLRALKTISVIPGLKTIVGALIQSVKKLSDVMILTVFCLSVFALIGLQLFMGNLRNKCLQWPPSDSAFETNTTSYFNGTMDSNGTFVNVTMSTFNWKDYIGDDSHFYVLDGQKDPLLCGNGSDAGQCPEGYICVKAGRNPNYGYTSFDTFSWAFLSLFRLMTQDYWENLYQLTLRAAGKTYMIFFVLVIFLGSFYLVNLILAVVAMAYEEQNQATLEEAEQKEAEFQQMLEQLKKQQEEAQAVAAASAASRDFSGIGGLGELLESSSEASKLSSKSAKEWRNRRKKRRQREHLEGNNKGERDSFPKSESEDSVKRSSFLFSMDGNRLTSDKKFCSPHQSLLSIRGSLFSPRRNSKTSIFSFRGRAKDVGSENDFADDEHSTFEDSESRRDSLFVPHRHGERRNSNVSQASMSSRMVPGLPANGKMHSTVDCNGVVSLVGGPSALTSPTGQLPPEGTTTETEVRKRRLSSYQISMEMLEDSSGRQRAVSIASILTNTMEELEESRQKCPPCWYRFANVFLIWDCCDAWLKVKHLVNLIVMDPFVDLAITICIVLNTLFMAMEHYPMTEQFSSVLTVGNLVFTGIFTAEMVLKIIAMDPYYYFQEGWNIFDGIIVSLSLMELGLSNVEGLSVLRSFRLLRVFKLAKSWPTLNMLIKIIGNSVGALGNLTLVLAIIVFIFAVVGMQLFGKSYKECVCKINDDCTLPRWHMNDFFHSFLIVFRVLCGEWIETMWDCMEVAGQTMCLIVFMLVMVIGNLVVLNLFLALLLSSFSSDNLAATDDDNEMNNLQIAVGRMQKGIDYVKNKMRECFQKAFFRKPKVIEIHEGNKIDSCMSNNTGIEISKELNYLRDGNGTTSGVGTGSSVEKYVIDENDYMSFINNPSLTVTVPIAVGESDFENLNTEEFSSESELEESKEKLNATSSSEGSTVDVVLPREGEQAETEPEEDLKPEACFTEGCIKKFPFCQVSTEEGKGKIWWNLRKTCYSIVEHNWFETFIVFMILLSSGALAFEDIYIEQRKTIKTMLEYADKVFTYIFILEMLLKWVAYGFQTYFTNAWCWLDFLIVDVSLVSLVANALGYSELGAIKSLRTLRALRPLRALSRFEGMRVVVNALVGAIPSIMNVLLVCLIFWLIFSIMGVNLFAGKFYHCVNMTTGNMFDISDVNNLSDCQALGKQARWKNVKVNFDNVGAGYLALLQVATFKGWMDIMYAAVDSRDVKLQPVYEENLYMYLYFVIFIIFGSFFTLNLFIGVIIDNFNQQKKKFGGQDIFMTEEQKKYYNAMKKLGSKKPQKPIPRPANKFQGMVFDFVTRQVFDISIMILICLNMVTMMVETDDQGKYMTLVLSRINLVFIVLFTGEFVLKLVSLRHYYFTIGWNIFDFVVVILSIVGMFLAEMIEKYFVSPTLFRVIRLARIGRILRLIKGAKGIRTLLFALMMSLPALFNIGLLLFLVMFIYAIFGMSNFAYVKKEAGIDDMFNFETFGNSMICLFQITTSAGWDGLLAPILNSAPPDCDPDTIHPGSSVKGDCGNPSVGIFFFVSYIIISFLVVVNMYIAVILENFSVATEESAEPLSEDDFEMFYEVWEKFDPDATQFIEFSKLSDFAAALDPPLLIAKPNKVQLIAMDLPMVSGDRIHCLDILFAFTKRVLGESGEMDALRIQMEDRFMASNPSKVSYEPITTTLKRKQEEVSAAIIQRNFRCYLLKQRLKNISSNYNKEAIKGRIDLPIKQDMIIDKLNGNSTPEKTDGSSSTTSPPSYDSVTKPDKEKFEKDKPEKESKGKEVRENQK
# Chain of Dopamine, D4.4 (h) (P21917 whole entry): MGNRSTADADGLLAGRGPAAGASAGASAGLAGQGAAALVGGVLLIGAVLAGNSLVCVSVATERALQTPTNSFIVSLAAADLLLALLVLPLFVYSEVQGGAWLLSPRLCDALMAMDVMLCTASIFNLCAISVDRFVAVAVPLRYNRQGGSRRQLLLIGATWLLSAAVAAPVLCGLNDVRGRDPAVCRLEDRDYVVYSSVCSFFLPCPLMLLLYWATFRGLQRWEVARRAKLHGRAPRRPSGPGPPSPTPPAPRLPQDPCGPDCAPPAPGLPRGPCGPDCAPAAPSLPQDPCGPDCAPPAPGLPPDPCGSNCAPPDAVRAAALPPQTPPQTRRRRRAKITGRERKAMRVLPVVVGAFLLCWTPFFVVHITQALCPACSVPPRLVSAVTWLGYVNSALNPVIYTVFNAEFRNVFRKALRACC
# Chain of Norepinephrine transporter (h) (P23975 whole entry): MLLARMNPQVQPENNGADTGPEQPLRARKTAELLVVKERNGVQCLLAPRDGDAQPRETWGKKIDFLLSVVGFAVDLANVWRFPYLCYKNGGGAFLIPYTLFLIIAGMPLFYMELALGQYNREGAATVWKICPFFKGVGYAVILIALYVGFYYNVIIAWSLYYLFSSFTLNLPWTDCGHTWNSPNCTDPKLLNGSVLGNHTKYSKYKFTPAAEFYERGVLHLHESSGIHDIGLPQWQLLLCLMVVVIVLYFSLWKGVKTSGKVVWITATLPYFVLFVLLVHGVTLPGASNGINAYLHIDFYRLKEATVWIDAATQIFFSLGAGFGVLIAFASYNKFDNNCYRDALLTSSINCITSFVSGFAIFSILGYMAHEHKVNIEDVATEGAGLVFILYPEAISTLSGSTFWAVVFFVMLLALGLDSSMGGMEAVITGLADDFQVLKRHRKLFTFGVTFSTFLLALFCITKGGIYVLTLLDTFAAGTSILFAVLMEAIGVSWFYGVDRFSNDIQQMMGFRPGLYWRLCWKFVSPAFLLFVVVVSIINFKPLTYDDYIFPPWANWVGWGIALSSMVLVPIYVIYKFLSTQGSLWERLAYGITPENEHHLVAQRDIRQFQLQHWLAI
# Chain of Serotonin, 5HT6 (h) (P50406 whole entry): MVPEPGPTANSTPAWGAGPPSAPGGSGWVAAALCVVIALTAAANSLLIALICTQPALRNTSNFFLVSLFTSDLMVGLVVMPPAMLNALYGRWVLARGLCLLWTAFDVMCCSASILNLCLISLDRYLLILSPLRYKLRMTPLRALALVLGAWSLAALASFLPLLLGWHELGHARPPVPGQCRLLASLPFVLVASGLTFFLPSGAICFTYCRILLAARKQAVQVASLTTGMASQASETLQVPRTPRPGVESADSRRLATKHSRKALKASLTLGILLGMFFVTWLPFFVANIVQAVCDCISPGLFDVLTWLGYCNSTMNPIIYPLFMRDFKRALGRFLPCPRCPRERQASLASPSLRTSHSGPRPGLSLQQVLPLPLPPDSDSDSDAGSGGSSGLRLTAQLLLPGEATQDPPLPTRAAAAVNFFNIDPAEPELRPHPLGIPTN
# Chain of Serotonin, 5HT2A (h) (P28223 whole entry): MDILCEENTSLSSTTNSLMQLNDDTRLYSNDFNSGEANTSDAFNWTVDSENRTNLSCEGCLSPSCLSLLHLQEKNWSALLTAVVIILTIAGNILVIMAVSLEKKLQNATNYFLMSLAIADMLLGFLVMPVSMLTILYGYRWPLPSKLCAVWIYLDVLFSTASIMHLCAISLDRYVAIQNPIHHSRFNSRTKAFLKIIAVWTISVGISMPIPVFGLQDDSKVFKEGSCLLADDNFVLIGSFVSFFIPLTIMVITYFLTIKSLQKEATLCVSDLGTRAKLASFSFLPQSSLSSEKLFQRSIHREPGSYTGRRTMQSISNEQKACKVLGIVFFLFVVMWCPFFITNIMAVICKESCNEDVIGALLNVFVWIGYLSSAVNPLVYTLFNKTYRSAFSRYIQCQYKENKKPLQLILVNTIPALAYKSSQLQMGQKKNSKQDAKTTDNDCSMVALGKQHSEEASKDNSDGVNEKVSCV
# Chain of Serotonin transporter (h) (P31645 whole entry): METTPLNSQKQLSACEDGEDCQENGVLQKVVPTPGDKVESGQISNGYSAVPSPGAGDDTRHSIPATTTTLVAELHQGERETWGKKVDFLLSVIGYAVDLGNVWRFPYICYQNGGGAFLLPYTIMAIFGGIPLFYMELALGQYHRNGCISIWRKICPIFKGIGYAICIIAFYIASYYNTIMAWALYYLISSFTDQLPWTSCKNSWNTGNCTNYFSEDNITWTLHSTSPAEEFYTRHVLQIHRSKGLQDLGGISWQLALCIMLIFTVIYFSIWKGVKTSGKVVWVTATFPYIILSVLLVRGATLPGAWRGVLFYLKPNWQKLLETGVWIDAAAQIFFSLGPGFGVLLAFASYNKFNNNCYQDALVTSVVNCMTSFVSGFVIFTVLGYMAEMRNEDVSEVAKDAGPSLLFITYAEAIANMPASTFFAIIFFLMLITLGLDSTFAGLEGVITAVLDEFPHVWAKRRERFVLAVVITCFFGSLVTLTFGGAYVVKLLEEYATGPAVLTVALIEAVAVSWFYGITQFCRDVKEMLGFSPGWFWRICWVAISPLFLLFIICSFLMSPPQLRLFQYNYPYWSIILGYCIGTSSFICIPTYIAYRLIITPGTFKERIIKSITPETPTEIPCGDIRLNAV
# Chain of Adenosine transporter (h) (Q99808 whole entry): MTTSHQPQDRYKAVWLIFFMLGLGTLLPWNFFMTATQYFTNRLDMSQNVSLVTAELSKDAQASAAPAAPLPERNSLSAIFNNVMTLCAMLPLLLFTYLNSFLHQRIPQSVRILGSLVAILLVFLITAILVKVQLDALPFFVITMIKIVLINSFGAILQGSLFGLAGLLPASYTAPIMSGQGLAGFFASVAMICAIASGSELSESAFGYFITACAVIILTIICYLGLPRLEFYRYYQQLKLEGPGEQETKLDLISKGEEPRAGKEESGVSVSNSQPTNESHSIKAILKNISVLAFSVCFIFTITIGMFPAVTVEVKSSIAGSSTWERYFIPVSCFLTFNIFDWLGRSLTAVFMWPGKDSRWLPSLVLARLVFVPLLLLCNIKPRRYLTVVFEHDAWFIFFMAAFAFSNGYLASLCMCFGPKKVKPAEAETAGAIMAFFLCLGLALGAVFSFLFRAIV
structure (smiles),measurement,setting,value
NC(=O)N1c2ccccc2C[C@H](O)c2ccccc21 [eslicarbazepine],inhibition at 400 µM,[1],4.32%
same,inhibition at 400 µM,[2],0%
same,inhibition at 400 µM,[3],0%
same,inhibition at 400 µM,[4],8.43%
same,IC50,[5],1230 µM
same,inhibition at 400 µM,[6],19.2%
same,% inhibition,[7],0.0%
same,inhibition at 400 µM,[8],9.33%
same,intestinal transport M–S versus S–M and sensitivity to verapamil,[9],of the same magnitude and insensitive to the P-glycoprotein inhibitor verapamil
same,% inhibition,[10],0.0%
same,% inhibition,[11],23.75%
same,% inhibition,[12],0.0%
same,% inhibition,[13],17.43%
same,% inhibition,[14],23.23%
same,inhibition at 400 µM,[15],2.05%
same,% inhibition,[16],1.56%
same,% inhibition,[17],2.1%
same,% inhibition,[18],38.95%
same,inhibition at 400 µM,[19],0%
same,% inhibition,[20],0.0%
same,Fast inactivation V0.5,"[21]; mean ± SEM, n = 3–6",−40.68 ± 3.10 mV
same,Slow inactivation V0.5,"[21]; mean ± SEM, n = 3–6",−26.61 ± 2.74 mV
same,time constant for entering the slow inactivated state,[21]; control 20.29 sec,14.02 s
same,inhibition at 400 µM,[22],5.7%
same,INaP in Scn1b null mice,[23]; Scn1b null mice,did not cause a paradoxical upregulation of INaP
same,maximal INaP conductance and firing rate,[23]; wild-type mice,significantly reduce maximal INaP conductance and efficiently decrease the firing rate
same,% inhibition,[24],6.78%
same,inhibition at 400 µM,[25],0%
same,% inhibition,[26],0.0%
same,inhibition at 400 µM,[27],4.94%
same,% inhibition,[28],0.45%
same,% inhibition,[29],0.0%
same,% inhibition,[30],0.0%
same,Kp at 60 min,"[31]; NMRI, Swiss, brain and plasma, other: oral or intraperitoneal",3.4 to 5.8
same,concentration at 60 min,"[31]; NMRI, brain (lipid fraction), intraperitoneal, Brain (lipid fraction) Eslicarbazepine, Corneal kindling, ESL 100 mg/kg i.p.",564 µM
same,concentration at 15 min,"[31]; NMRI, brain (lipid fraction), intraperitoneal, 200 mg/kg, Brain (lipid fraction) Eslicarbazepine, ESL 200 mg/kg i.p.",313 µM
same,concentration at 15 min,"[31]; NMRI, brain (lipid fraction), intraperitoneal, 300 mg/kg, Brain (lipid fraction) Eslicarbazepine, ESL 300 mg/kg i.p.",489 µM
same,concentration at 60 min,"[31]; NMRI, brain (organic phase), intraperitoneal, Brain (organic phase) Eslicarbazepine, Corneal kindling, ESL 100 mg/kg i.p.",314 µM
same,concentration at 15 min,"[31]; NMRI, brain (organic phase), intraperitoneal, 200 mg/kg, Brain (organic phase) Eslicarbazepine, ESL 200 mg/kg i.p.",174 µM
same,concentration at 15 min,"[31]; NMRI, brain (organic phase), intraperitoneal, 300 mg/kg, Brain (organic phase) Eslicarbazepine, ESL 300 mg/kg i.p.",273 µM
same,concentration at 60 min,"[31]; Swiss, brain (lipid fraction), oral, Brain (lipid fraction) Eslicarbazepine, Latrunculin A-induced seizures, ESL 100 mg/kg p.o.",303 µM
same,concentration at 60 min,"[31]; Swiss, brain (organic phase), oral, Brain (organic phase) Eslicarbazepine, Latrunculin A-induced seizures, ESL 100 mg/kg p.o.",169 µM
same,% inhibition,[32],9.36%
same,inhibition at 400 µM,[33],20.4%
same,inhibition at 400 µM,[34],11.9%
same,inhibition at 400 µM,[35],5.86%
same,inhibition at 400 µM,[36],0%
same,inhibition at 400 µM,[37],3.67%
same,"eslicarbazepine-free drug, peak plasma",[38],63 µmol/L
same,% inhibition,[39],17.45%
same,% inhibition,[40],0.0%
same,inhibition at 400 µM,[41],10.1%
same,inhibition at 400 µM,[42],0%
